Measurements reported in BindingDB's records for patent US20230382863 (Ikena Oncology, 2023).

Target: Mitogen-activated protein kinase kinase kinase 1/RAF proto-oncogene serine/threonine-protein kinase (Homo sapiens, UniProt P04049+Q02750)
Assay: AlphaLISA Assay
Description: 5 μL 4×MEK1 stock solution was added to wells A1-P20 by multichannel pipettes. […] 5 μL 4×CRAF stock solution at different concentrations or 5 μL or 10 μL AlphaLISA buffer was added by multichannel pipettes. The plate was sealed, centrifuged at 1000 rpm for 1 minute, and incubated at room temperature for 60 minutes. 5 μL 4×glutathione acceptor beads were first added to all wells by multichannel pipettes. The ambient light was subsequently adjusted to <100 lux (light meter) before adding 5 μL 4×nickel chelate donor beads to the same wells. From this step on, the plate was covered with a black plate cover, centrifuged at 1000 rpm for 1 minute, and incubated at room temperature for 60 minutes.

Chain of Mitogen-activated protein kinase kinase kinase 1/RAF proto-oncogene serine/threonine-protein kinase (P04049 whole entry): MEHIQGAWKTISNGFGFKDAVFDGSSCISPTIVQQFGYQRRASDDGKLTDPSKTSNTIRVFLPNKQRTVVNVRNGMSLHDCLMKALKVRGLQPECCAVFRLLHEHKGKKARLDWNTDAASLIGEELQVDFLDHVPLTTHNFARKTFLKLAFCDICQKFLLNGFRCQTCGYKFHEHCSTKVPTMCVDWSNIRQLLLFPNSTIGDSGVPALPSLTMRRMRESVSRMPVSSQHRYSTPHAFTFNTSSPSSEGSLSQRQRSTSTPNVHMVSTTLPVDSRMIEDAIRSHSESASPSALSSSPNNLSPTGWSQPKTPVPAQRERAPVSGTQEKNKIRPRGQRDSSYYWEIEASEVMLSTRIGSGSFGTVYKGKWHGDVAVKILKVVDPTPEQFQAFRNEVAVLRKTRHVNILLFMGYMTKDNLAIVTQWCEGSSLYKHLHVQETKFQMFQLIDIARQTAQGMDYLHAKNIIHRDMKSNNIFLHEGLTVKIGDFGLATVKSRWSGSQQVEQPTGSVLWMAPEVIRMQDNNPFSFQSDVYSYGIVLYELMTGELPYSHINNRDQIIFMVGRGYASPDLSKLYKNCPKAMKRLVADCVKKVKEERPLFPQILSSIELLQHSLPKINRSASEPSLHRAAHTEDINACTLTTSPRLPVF
Chain of Mitogen-activated protein kinase kinase kinase 1/RAF proto-oncogene serine/threonine-protein kinase (Q13233 whole entry, further chain): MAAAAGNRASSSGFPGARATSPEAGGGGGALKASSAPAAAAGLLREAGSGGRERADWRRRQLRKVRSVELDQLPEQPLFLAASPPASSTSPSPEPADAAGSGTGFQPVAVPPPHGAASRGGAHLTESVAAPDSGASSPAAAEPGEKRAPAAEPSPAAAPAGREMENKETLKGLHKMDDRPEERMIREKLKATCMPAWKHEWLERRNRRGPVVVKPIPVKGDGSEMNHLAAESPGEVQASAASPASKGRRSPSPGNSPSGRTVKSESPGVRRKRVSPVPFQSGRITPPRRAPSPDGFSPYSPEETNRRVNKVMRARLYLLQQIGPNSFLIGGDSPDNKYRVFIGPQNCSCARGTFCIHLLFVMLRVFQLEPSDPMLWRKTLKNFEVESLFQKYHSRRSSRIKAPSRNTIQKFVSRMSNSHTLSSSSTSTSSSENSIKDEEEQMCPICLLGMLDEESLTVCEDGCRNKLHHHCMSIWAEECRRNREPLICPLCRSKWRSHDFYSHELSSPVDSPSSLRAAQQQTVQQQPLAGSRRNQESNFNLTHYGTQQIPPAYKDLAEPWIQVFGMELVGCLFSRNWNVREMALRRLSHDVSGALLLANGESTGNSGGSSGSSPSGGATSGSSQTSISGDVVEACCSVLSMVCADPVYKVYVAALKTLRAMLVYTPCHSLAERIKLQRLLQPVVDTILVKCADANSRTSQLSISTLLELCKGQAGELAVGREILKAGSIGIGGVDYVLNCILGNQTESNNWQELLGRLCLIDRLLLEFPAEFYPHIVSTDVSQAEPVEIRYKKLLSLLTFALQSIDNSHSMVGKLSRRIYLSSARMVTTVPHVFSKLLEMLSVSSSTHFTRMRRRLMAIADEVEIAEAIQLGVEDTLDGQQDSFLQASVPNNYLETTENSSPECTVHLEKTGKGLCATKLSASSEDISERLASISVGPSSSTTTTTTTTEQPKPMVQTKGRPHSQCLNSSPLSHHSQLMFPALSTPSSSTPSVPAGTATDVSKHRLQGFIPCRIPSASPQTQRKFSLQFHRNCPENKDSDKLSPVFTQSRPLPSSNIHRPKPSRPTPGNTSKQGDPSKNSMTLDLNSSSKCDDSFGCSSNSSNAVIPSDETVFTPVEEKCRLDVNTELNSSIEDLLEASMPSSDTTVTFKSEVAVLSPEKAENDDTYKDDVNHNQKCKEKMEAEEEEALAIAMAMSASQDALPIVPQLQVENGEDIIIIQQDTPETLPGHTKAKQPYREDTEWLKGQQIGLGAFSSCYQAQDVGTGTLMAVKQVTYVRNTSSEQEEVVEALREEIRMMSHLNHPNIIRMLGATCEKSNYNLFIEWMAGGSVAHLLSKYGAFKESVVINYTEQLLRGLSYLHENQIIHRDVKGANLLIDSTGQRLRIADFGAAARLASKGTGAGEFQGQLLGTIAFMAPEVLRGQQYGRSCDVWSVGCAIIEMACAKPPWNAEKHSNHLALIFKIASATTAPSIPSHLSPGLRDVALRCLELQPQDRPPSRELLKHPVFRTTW

Structure (SMILES) | Kd
CNS(=O)(=O)Nc1cccc(Oc2c(C(=O)NC3CC3)c(Nc3ccc(I)cc3F)n(C)c(=O)c2C)c1OC(F)(F)F [US20230382863, Compound I-40] | 0.47 nM
CCNS(=O)(=O)Nc1cccc(Oc2c(C(=O)NC3CC3)c(Nc3ccc(I)cc3F)n(C)c(=O)c2C)c1Cl [US20230382863, Compound I-43] | 0.51 nM
CNS(=O)(=O)Nc1cccc(Oc2c(C(=O)NC3CC3)c(Nc3ccc(I)cc3F)n(C)c(=O)c2C)c1OC [US20230382863, Compound I-1] | 0.42 nM
CNS(=O)(=O)Nc1cccc(Oc2c(C(=O)NC(C)C)c(Nc3ccc(I)cc3F)n(C)c(=O)c2C)c1Cl [US20230382863, Compound I-41] | 0.48 nM
CNS(=O)(=O)Nc1cccc(Oc2c(C(=O)NCC(F)(F)F)c(Nc3ccc(I)cc3F)n(C)c(=O)c2C)c1Cl [US20230382863, Compound I-45] | 0.38 nM
COCCNS(=O)(=O)Nc1cccc(Oc2c(C(=O)NC3CC3)c(Nc3ccc(I)cc3F)n(C)c(=O)c2C)c1Cl [US20230382863, Compound I-55] | 0.51 nM
Cc1c(Oc2cccc(NS(=O)(=O)NC3CC3)c2Cl)c(C(=O)NC2CC2)c(Nc2ccc(I)cc2F)n(C)c1=O [US20230382863, Compound I-42] | 0.57 nM
CCNC(=O)c1c(Oc2cccc(NS(=O)(=O)NC)c2Cl)c(C)c(=O)n(C)c1Nc1ccc(I)cc1F [US20230382863, Compound I-54] | 0.35 nM
